Experimental data as given in ChEMBL document CHEMBL4184146, “Interrogating the Roles of Post-Translational Modifications of Non-Histone Proteins” (J Med Chem, 2018).

Columns and labels:
Protein O-GlcNAcase = target: T1, Protein O-GlcNAcase (Rattus norvegicus, UniProt Q8VIJ5); assay: Inhibition of O-GlcNAcase in rat PC12 cells assessed as induction of OGlcNAcylation after 24 hrs by Western blot method; format: cell-based
T1 sequence (Q8VIJ5 whole entry): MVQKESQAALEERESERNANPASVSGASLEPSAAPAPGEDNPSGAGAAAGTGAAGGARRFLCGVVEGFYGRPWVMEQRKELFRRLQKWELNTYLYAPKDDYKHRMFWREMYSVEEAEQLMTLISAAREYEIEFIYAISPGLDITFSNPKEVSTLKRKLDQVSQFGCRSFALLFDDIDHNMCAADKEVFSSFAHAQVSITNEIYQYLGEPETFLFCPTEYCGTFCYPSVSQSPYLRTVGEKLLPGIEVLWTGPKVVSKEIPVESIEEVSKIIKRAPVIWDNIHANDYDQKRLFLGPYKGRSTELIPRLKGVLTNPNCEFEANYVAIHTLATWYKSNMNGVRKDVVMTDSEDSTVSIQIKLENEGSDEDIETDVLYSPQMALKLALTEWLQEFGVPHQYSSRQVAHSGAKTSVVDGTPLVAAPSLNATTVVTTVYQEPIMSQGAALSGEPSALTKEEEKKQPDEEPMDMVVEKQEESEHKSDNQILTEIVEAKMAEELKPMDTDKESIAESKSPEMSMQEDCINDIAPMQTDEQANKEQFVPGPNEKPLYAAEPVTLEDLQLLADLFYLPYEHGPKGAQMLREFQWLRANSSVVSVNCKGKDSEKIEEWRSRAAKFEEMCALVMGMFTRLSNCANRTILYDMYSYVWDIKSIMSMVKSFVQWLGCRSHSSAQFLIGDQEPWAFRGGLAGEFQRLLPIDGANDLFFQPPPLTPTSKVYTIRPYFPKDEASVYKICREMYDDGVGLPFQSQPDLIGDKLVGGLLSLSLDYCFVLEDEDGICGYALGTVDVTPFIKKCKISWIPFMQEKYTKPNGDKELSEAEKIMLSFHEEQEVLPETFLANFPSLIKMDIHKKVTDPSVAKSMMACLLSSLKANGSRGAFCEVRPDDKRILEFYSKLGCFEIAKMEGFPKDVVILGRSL

[1] = target: Protein farnesyltransferase (Homo sapiens, UniProt P49354+P49356); assay: Inhibition of FTase isolated from human Burkitt's lymphoma cells assessed as decrease in transfer of [3H]farnesyl from [3H]farnesyl PPi to H-Ras-CVLS
[2] = Inhibition of SCF (SKP2) complex (unknown origin) expressed in baculovirus infected Sf9 cells assessed as decrease in phospho-p27 Kip1 ubiquitination preincubated for 10 to 45 mins followed by phospho-p27 Kip1 addition measured after 1 to 3 hrs by immunoblot method; set-up: species or system Homo sapiens
[3] = target: Histone acetyltransferase p300 (Homo sapiens, UniProt Q09472); assay: Inhibition of full length His6-tagged recombinant p300 (unknown origin) expressed in baculovirus infected Sf21 cells using human histone as substrate preincubated for 10 mins followed by [3H]acetyl-CoA addition measured after 10 mins by liquid scintillation counting method
[4] = target: c-Jun N-terminal kinase, JNK (Homo sapiens, UniProt P45983+P53779+P45984); assay: Inhibition of JNK (unknown origin); format: protein assay
Sharpin/RBCK1/RNF31 = target: T2, Sharpin/RBCK1/RNF31 (Homo sapiens, UniProt Q96EP0+Q9BYM8+Q9H0F6); assay: Inhibition of petit-LUBAC (unknown origin)-mediated ubiquitylation expressed in Escherichia coli BL21 after 2 hrs in presence of E1, UbcH5c, E3 and ubiquitin
T2 sequence (Q9H0F6 whole entry): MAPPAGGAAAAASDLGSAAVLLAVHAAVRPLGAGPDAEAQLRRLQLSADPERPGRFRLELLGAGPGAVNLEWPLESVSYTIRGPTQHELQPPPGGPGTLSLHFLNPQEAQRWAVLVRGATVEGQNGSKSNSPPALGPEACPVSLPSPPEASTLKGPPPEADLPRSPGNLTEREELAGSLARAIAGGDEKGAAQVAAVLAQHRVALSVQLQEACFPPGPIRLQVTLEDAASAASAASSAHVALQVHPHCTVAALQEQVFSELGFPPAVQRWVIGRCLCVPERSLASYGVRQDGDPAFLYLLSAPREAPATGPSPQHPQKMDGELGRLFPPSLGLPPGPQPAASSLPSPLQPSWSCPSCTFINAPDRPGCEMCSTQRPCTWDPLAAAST
T2 sequence (Q9BYM8 whole entry): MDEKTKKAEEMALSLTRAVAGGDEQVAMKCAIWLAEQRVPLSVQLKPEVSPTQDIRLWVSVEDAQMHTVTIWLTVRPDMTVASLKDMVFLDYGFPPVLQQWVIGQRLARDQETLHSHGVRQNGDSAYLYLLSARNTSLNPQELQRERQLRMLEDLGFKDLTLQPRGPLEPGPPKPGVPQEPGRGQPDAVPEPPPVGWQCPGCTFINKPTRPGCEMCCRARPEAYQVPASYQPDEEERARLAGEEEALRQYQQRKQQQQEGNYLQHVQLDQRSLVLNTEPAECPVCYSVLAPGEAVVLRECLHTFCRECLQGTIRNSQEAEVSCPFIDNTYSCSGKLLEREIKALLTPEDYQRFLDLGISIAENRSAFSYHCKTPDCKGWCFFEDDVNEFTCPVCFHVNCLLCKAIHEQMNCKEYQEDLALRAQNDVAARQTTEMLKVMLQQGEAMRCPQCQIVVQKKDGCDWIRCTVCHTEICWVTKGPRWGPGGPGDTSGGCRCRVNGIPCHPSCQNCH
T2 sequence (Q96EP0 whole entry): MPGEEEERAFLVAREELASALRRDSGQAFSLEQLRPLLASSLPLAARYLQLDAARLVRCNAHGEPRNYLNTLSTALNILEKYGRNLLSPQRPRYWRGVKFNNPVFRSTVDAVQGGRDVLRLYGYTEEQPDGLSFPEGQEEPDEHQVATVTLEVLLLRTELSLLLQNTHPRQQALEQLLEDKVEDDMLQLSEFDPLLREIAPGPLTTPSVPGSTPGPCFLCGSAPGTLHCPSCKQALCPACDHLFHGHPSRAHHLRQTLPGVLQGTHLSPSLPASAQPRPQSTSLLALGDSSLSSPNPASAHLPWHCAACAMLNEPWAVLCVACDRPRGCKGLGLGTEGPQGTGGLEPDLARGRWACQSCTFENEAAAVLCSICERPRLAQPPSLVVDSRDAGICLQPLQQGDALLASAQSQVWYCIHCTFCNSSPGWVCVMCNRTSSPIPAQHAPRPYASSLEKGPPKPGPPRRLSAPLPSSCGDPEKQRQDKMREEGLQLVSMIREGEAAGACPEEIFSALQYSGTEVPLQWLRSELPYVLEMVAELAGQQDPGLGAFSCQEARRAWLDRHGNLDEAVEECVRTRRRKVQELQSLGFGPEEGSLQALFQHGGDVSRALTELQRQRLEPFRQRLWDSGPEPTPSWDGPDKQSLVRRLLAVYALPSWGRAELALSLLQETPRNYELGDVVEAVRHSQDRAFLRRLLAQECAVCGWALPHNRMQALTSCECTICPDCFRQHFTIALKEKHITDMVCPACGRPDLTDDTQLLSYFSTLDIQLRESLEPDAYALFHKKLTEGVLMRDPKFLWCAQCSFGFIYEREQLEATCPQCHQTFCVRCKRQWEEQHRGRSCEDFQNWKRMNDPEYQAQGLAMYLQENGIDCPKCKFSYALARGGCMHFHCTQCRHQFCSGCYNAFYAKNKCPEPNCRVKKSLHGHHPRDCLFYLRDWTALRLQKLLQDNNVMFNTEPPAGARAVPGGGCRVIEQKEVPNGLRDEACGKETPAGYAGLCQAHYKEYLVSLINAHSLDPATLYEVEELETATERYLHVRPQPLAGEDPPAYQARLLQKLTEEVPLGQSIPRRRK

[5] = target: Serine/threonine-protein kinase B-raf (Homo sapiens, UniProt P15056); assay: Inhibition of BRAF (unknown origin) using MEK1 K97R mutant as substrate preincubated for 60 to 120 mins followed by substrate addition measured after 2 hrs by TR-FRET assay
[6] = Inhibition of UAE (unknown origin) assessed as decrease in formation of E2-UBL thioester reaction product; set-up: species or system Homo sapiens
SUMO-activating enzyme = SUMO-activating enzyme (Homo sapiens, UniProt Q9UBT2); assay: Inhibition of SAE (unknown origin) assessed as decrease in formation of E2-UBL thioester reaction product; format: protein-complex assay
[7] = target: T3, Ubiquitin-like modifier-activating enzyme ATG7 (Homo sapiens, UniProt O95352); assay: Inhibition of ATG7 (unknown origin) assessed as decrease in formation of E2-UBL thioester reaction product
T3 sequence (O95352 whole entry): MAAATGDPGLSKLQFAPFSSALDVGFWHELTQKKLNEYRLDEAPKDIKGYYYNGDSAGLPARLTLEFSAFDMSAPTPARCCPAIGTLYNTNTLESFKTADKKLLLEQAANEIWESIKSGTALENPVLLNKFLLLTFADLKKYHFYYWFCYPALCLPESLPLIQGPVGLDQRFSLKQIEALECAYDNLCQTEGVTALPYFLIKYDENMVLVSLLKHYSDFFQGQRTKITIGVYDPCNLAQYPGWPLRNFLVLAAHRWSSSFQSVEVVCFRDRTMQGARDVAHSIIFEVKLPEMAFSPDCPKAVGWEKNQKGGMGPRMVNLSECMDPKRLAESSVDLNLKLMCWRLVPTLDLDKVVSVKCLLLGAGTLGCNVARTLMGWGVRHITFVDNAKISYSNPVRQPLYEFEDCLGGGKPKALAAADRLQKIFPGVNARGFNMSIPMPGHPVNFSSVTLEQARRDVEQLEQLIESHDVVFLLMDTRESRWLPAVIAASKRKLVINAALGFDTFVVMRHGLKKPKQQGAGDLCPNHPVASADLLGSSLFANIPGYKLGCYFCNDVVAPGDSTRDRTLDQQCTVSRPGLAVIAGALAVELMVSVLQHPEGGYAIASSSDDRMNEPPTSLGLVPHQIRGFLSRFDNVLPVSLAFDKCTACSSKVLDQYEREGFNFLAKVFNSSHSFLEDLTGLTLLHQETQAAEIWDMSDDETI

[8] = target: T4, Ubiquitin-like modifier-activating enzyme 6 (Homo sapiens, UniProt A0AVT1); assay: Inhibition of UBA6 (unknown origin) assessed as decrease in formation of E2-UBL thioester reaction product
T4 sequence (A0AVT1 whole entry): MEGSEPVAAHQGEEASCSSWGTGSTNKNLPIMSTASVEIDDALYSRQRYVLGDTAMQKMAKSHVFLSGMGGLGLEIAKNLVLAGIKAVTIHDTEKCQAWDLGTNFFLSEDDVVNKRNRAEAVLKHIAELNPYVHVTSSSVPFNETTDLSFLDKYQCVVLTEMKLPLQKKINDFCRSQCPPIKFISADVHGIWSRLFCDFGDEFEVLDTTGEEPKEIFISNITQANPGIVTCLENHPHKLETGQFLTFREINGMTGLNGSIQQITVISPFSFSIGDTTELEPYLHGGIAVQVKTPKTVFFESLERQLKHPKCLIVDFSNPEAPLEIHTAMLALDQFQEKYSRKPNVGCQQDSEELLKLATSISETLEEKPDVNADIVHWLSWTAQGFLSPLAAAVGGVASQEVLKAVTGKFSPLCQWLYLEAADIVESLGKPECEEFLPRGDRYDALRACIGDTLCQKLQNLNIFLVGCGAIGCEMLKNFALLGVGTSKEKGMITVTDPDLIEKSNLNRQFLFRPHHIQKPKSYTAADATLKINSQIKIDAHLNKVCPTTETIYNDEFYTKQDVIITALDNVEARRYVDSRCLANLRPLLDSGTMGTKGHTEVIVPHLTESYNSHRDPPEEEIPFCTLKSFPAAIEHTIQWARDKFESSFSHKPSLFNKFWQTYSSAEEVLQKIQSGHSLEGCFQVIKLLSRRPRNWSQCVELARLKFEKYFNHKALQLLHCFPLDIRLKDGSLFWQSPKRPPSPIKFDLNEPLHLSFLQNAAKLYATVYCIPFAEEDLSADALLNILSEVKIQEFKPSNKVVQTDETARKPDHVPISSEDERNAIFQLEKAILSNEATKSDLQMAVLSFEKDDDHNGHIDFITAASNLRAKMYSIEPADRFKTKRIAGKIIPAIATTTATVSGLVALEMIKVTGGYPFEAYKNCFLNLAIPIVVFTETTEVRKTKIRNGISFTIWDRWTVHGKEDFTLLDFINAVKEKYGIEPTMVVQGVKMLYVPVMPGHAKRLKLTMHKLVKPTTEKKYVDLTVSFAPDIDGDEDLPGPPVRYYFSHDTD

[9] = target: Geranylgeranyl transferase type I (Homo sapiens, UniProt P49354+P53609); assay: Inhibition of GGTase1 isolated from Kirsten virus-transformed human osteosarcoma cells using biotin-YRASNRSCAIL peptide as substrate after 120 mins in presence of [ 1-[ 3 H](n)]geranylgeranylpyrophosphate by scintillation proximity assay

Chain of Serine/threonine-protein kinase B-raf (P15056 whole entry): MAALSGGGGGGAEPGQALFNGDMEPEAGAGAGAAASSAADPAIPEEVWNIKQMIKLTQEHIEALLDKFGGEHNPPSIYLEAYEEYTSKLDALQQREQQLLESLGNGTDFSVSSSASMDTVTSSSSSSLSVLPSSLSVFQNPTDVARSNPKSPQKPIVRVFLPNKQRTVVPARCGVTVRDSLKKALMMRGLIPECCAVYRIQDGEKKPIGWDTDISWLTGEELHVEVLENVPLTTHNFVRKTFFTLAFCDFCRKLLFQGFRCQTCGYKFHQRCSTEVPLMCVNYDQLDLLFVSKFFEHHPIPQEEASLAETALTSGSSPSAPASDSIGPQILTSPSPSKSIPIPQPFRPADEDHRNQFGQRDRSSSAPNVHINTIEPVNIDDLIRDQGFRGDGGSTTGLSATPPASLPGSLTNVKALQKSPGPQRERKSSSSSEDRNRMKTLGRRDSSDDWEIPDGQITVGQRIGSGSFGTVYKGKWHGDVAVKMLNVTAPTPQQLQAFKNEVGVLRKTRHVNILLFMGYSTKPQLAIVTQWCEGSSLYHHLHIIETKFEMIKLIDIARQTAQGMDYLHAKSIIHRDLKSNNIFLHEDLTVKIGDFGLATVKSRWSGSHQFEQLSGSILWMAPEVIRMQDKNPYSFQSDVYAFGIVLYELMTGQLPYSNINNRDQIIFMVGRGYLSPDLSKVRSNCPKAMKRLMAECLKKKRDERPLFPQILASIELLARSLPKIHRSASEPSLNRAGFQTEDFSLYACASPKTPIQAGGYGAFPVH
Chain of Histone acetyltransferase p300 (Q09472 whole entry): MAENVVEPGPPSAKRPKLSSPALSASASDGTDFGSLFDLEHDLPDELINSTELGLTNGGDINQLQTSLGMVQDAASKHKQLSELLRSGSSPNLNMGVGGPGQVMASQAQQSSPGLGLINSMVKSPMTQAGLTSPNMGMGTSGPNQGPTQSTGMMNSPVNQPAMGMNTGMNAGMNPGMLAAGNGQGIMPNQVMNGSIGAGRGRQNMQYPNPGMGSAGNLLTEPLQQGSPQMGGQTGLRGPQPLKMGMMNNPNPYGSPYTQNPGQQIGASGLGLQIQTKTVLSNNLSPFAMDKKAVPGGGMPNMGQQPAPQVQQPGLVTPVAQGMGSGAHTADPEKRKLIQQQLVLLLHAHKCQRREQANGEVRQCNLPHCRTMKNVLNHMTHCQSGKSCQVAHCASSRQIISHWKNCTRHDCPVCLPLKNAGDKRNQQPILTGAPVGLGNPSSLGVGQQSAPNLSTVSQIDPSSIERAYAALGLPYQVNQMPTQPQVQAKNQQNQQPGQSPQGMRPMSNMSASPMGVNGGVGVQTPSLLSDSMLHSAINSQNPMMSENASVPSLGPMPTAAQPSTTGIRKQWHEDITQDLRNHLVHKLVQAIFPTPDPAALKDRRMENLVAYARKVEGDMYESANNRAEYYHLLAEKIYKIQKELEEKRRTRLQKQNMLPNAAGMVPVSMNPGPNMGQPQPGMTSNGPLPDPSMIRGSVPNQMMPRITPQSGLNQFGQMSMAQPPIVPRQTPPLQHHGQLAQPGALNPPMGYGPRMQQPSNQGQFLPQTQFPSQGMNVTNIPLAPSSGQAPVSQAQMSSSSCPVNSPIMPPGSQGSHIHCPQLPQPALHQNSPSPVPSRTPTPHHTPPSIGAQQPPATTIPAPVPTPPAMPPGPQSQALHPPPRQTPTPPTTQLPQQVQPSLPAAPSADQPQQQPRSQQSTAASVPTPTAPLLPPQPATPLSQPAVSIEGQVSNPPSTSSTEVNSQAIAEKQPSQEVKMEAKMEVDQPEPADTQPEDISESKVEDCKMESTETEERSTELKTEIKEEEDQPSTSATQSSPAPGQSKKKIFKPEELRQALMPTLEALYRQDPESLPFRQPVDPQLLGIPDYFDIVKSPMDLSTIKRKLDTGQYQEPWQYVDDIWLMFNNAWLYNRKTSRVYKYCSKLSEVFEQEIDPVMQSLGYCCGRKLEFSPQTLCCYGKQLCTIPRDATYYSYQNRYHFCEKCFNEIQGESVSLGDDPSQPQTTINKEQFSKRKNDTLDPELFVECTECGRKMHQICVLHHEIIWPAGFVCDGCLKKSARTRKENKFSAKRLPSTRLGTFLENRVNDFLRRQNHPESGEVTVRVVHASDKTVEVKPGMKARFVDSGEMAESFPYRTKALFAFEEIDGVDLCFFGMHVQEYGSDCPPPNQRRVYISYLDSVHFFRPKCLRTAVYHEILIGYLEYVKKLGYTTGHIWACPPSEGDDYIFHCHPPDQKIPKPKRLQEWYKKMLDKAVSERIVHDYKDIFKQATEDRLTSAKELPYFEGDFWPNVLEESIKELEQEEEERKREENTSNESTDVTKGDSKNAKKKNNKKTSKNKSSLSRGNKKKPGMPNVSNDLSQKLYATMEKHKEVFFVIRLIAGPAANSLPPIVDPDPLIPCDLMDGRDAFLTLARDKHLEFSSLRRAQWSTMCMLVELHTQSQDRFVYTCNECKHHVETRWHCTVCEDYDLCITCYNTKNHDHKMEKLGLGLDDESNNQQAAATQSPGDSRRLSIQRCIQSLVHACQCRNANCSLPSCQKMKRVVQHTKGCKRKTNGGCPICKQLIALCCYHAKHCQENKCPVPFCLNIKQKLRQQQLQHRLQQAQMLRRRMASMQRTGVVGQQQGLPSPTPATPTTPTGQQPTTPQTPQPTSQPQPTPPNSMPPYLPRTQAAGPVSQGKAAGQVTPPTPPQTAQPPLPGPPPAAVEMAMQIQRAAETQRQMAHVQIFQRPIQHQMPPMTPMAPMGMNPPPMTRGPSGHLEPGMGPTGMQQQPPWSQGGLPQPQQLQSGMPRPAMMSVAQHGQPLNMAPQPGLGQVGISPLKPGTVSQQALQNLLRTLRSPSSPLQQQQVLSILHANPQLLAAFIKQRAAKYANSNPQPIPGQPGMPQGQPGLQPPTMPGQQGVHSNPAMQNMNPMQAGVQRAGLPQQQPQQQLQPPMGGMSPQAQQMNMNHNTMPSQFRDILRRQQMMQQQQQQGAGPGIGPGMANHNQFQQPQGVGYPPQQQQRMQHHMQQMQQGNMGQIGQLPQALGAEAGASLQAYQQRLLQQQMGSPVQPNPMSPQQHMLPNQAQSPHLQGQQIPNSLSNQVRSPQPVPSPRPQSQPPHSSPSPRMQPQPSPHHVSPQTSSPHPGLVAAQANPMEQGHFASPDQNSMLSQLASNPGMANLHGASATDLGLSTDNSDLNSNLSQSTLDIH
Chain of SUMO-activating enzyme (Q9UBE0 whole entry): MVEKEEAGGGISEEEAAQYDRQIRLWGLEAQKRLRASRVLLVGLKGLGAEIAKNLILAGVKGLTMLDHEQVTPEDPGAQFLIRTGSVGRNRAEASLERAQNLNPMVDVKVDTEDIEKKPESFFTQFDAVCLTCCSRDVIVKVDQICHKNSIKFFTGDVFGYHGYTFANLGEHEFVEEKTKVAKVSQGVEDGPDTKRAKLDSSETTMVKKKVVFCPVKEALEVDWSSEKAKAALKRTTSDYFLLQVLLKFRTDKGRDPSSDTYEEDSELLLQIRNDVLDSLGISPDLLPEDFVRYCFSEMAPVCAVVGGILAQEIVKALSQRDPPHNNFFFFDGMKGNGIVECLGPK
Chain of SUMO-activating enzyme (Q9UBT2 whole entry): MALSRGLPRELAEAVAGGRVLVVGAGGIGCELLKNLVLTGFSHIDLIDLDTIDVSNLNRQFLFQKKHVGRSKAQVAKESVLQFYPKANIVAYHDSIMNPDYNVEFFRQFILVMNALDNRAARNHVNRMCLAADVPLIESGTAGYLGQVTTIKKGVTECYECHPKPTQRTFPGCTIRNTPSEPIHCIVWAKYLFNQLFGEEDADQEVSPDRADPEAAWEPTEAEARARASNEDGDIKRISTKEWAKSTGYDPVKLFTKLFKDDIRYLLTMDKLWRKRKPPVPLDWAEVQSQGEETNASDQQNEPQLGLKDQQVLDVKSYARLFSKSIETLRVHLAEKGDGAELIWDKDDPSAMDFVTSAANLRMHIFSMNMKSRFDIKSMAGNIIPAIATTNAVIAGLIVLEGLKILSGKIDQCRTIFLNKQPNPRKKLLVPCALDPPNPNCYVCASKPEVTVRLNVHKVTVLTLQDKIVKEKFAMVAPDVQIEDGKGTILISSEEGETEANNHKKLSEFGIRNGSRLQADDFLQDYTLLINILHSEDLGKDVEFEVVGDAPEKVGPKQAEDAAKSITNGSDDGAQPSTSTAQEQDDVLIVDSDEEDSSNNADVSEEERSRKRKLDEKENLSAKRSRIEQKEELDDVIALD

Work on `CCNC1=N[C@@H]2[C@@H](O)[C@H](O)[C@@H](CO)O[C@@H]2S1` yielded an EC50 (Protein O-GlcNAcase) of 30 nM.
Work on `COC(=O)[C@H](CCSC)NC(=O)c1ccc(NC[C@@H](N)CS)cc1-c1ccccc1` yielded an IC50 [1] of 0.5 nM.
`COCC(=O)N[C@@H](Cc1ccc(-c2cc(Cl)cc(Cl)c2)cc1)[C@H](O)[C@@H](O)C(=O)O` showed an IC50 [2] of 1700 nM.
For `CSCC[C@@H](NC(=O)c1ccc(CNCc2c[nH]cn2)cc1-c1ccccc1C)C(=O)O`, the IC50 [1] was 1.4 nM.
Compound `C=C(C)[C@H](CC=C(C)C)C[C@]12C[C@H](CC=C(C)C)C(C)(C)[C@](CC=C(C)C)(C(=O)C(C(=O)c3ccc(O)c(O)c3)=C1O)C2=O` has an IC50 [3] of 7000 nM.
Work on `Nc1nnc(Sc2ncc([N+](=O)[O-])s2)s1` yielded an IC50 [4] of 700 nM.
`CN1C(=O)[C@]23CC4=CC=C[C@H](O)[C@H]4N2C(=O)[C@@]1(CO)SS3` [GLIOTOXIN] gave an IC50 (Sharpin/RBCK1/RNF31) of 510 nM.
Work on `O=C1CCc2c(Oc3ccc4c(c3)[C@@H]3[C@H](O4)[C@H]3c3nc4ccc(C(F)(F)F)cc4[nH]3)ccnc2N1` [LIFIRAFENIB] yielded an IC50 [5] of 23 nM.
Compound `NS(=O)(=O)OC[C@@H]1C[C@@H](n2ccc3c(N[C@H]4CCc5ccccc54)ncnc32)C[C@@H]1O` [PEVONEDISTAT] has an IC50 [6] greater than 1000 nM, an IC50 (SUMO-activating enzyme) greater than 1000 nM and an IC50 [7] greater than 1000 nM. For the same compound, the IC50 [8] was greater than 1000 nM.
With `Cn1cncc1[C@@](N)(c1ccc(Cl)cc1)c1ccc2c(c1)c(-c1cccc(Cl)c1)cc(=O)n2C` [TIPIFARNIB] the IC50 [9] was greater than 1000 nM.
